Experimental data as given in the NIST ThermoML archive (doi:10.1016/j.tca.2016.04.001).

Legend:
[1] = xn = mol fraction of the nth substance listed; conditions: 87 kPa, Liquid, Vibrating tube method
[2] = 87 kPa, Liquid, Vibrating tube method

CCOC(C)=O [ethyl acetate] + OC(CCl)CCl
[1], x2 = 0
Conditions	mass density [kg/m3]
293.15 K	900.71
298.15 K	894.65
303.15 K	888.52
308.15 K	882.35
313.15 K	876.12

C=COC(C)=O [vinyl acetate] + OC(CCl)CCl
[1], x2 = 0
Conditions	mass density [kg/m3]
293.15 K	932.41
298.15 K	926.01
303.15 K	919.56
308.15 K	913.07
313.15 K	906.52

OCc1ccccc1 [benzenemethanol] + CCOC(C)=O
mass density [kg/m3], [1]
Conditions	293.15 K	298.15 K	303.15 K	308.15 K	313.15 K
x1 = 0.0452	909.04	903.11	897.12	891.1	885.03
x1 = 0.1047	919.57	913.81	908.02	902.18	896.3
x1 = 0.2008	935.91	930.43	924.91	919.36	913.77
x1 = 0.3043	952.73	947.53	942.29	937.02	931.72
x1 = 0.4	967.5	962.53	957.53	952.49	947.43
x1 = 0.5017	982.41	977.66	972.89	968.08	963.26
x1 = 0.6006	996.27	991.73	987.15	982.56	977.95
x1 = 0.7013	1009.5	1005.14	1000.77	996.37	991.97
x1 = 0.8074	1023	1018.86	1014.67	1010.47	1006.26
x1 = 0.9042	1034.66	1030.64	1026.67	1022.63	1018.59
x1 = 0.9537	1040.08	1036.17	1032.23	1028.28	1024.32
x1 = 1	1045.21	1041.38	1037.5	1033.63	1029.71

OCc1ccccc1 [benzenemethanol] + C=COC(C)=O
[1], x1 = 1
Conditions	mass density [kg/m3]
293.15 K	1045.21
298.15 K	1041.38
303.15 K	1037.5
308.15 K	1033.63
313.15 K	1029.71

OC(CCl)CCl [1,3-dichloro-2-propanol] + CC(=O)OC(C)(C)C
mass density [kg/m3], [1]
Conditions	293.15 K	298.15 K	303.15 K	308.15 K	313.15 K
x1 = 0.0496	885.18	879.67	874.08	868.47	862.83
x1 = 0.0948	902.23	896.7	891.14	885.54	879.9
x1 = 0.2007	943.76	938.26	932.7	927.12	921.51
x1 = 0.3003	985.2	979.7	974.18	968.6	963
x1 = 0.4001	1029.14	1023.63	1018.09	1012.51	1006.91
x1 = 0.4991	1075.36	1069.84	1064.27	1058.68	1053.06
x1 = 0.6003	1125.61	1120.05	1114.46	1108.83	1103.17
x1 = 0.7009	1179.16	1173.55	1167.9	1162.21	1156.49
x1 = 0.8013	1236.36	1230.68	1224.95	1219.17	1213.37
x1 = 0.9032	1298.89	1293.07	1287.22	1281.34	1275.42
x1 = 0.9507	1329.66	1323.78	1317.85	1311.9	1305.91
x1 = 1	1362.66	1356.74	1350.72	1344.71	1338.65

OC(CCl)CCl [1,3-dichloro-2-propanol]
[2]
Conditions	mass density [kg/m3]
293.15 K	1362.66
298.15 K	1356.74
303.15 K	1350.72
308.15 K	1344.71
313.15 K	1338.65

OC(CCl)CCl [1,3-dichloro-2-propanol] + C=COC(C)=O
mass density [kg/m3], [1]
Conditions	293.15 K	298.15 K	303.15 K	308.15 K	313.15 K
x1 = 0.0481	954.28	947.93	941.53	935.07	928.57
x1 = 0.1022	978.78	972.47	966.08	959.68	953.24
x1 = 0.2021	1023.42	1017.18	1010.91	1004.52	998.25
x1 = 0.2995	1066.61	1060.46	1054.25	1048	1041.72
x1 = 0.3953	1108.66	1102.54	1096.39	1090.21	1083.96
x1 = 0.5002	1154.23	1148.18	1142.09	1135.96	1129.81
x1 = 0.6003	1197.18	1191.17	1185.12	1179.04	1172.93
x1 = 0.6999	1239.3	1233.34	1227.29	1221.25	1215.17
x1 = 0.8007	1281.45	1275.5	1269.5	1263.47	1257.41
x1 = 0.9014	1322.94	1317	1311	1304.98	1298.92
x1 = 0.9524	1343.43	1337.48	1331.49	1325.46	1319.4
x1 = 1	1362.66	1356.74	1350.72	1344.71	1338.65
